Marks after values point to notes of the source that are not given here.
What was measured:
influenza virus A/H5N2 = format: binding
[1] = test system: influenza virus A/H1N1/NIB23; test: fetuin binding inhibition test (FBI-test), influenza virus receptor binding inhibition assay
[2] = test system: influenza virus A/Н3N2/29/90; test: as above
[3] = association (tectomer formation) on mica surface by scanning force microscopy (SFM); format: physicochemical; settings: 0.1 mg/mL; for tectomer layer height on mica: рН 6.5, tapping mode in air
[4] = association in aqueous solution by dynamic light scattering (DLS); format: physicochemical
[5] = FBI-test, value in parentheses for monomeric sialoside

Question: Which IC50 (influenza virus A/H5N2) does the source give for `CC(=O)N[C@H]1[C@H]([C@H](O)[C@H](O)CO)O[C@@](O[C@H]2[C@@H](O)[C@@H](CO)O[C@@H](O[C@H]3[C@H](O)[C@@H](O)[C@H](O)O[C@@H]3CO)[C@@H]2O)(C(=O)O)C[C@@H]1O` [3’SL, Neu5Acα2-3Galβ1-4Glcβ] here?
Answer: 150 µM

Question: What about the Relative activity (influenza virus A/H5N2) of the same compound?
Answer: 1(150)^b

Question: Which IC50 [1, 5] does the source give for `CC(=O)N[C@H]1[C@H]([C@H](O)[C@H](O)CO)O[C@](OC[C@H]2O[C@@H](O[C@H]3[C@H](O)[C@@H](NC(C)=O)C(O)O[C@@H]3CO)[C@H](O)[C@@H](O)[C@H]2O)(C(=O)O)C[C@@H]1O` (some centres unmarked) [6’SLN, Neu5Acα2-6Galβ1-4GlcNAcβ] here?
Answer: 150 µM

Question: What about the Relative activity ([1]; inhibition of binding of fetuin peroxidase conjugate to immobilized virus, related to monomer 6’SLN = 1) of the same compound?
Answer: 1

Question: Which results are given for `CC(=O)N[C@H]1[C@H]([C@H](O)[C@H](O)CO)O[C@@](OCc2ccccc2)(C(=O)O)C[C@@H]1O` [Neu5AcαOBn]?
Answer: IC50 [2, 5]: 150 µM; Relative activity ([2]; inhibition of binding of fetuin peroxidase conjugate to virus immobilized on plastic, related to monomer Neu5AcαOBn = 1): 1

Question: What does the source list for Н-Gly4NH(СН2)10NHGly4-Н?
Answer: tectomer layer height on mica [3]: 3.7–4.0 nm; size of associates stable in aqueous media ([4]; neutral and basic media (рН 6.5 and 8.5, after NaHCO3 or Na2CO3), concentration ≤0.1 mg/mL): 800–1200 nm

Question: Which “concentration at which the peptide associates in acidic solution” value ([4]; aqueous solution, рН < 5) does the source give for Н-Gly4NH(СН2)10NHGly4-Н·2HCl here?
Answer: ≥ 500 µg/mL

Question: What does the source list for Н-Gly5-NH(СН2)2NH-Gly5-Н?
Answer: tectomer layer height on mica [3]: 3.3 nm; planar dimensions of islet-like tectomers on mica ([3]; рН 6.5, texp = 10 min, tapping mode in air): 500–700 nm

Reference: publication PMC4077438, “Biantennary oligoglycines and glyco-oligoglycines self-associating in aqueous medium” (Beilstein Journal of Organic Chemistry, 2014)
